Data: patent publication US20250361209A1, “CRYSTAL FORMS OF N-(3-FLUOROPHENYL)-6-(6,7-DIMETHOXYQUINOLIN-4-OXY)-3,4-DIHYDROQUINOLINE-1(2H)-CARBOXAMIDE METHANESULFONATE AND PREPARATION METHOD THEREOF” (Shanghai Yi Feng Biotechnology Co., Ltd., priority 2023, published 2025)
“Also recorded” adds a separate entry of the source.

Tests used:
Format in all cases: physicochemical
[1] = Test of influencing factors of crystalline forms A, B and C (total impurity)
Text: Example 3 Test of Influencing Factors of Crystalline Forms A, B and C

[2] = Solid state stability of the crystalline form C of methanesulfonate (HPLC purity, XRPD); settings: for change in HPLC purity: closed condition 60° C. 24 hours, open condition 25° C./60% RH 1 week or 4 weeks, methanesulfonate
Protocol: The purity decreased from 99.22 area % to 98.80 area % after the crystalline form C was placed under an open condition in an environment of 40° C./75% RH for 4 weeks, with a 0.38% increase in the impurity at RRT of 0.81.

Hygroscopicity, DVS test = experiment: Hygroscopicity, DVS test
Protocol: The hygroscopicity of the anhydrate crystalline form C of methanesulfonate was evaluated by a DVS test at 0% RH-95% RH at 25° C.

[3] = High temperature (60° C.), 0 day, methanesulfonate
[4] = High temperature (60° C.), 10 days, methanesulfonate
[5] = Illumination (5000 + 500 lux), 0 day, methanesulfonate
[6] = Illumination (5000 + 500 lux), 10 days, methanesulfonate
[7] = Illumination (5000 + 500 lux), 30 days, methanesulfonate
[8] = 60° C./closed condition/24 hours
[9] = Start* (RH tests; stored at −20° C.)
[10] = open condition 40° C./75% RH, 4 weeks

Structure (SMILES): COc1cc2nccc(Oc3ccc4c(c3)CCCN4C(=O)Nc3cccc(F)c3)c2cc1OC [Crystalline form B, N-(3-fluorophenyl)-6-(6,7-dimethoxyquinolin-4-oxy)-3,4-dihydroquinoline-1(2H)-carboxamide methanesulfonate]
- Total impurity % ([1]; High humidity (RH75%), 0 day, methanesulfonate): 0.86%
- Total impurity % ([1]; High humidity (RH75%), 5 days, methanesulfonate): 1.03%
- Total impurity % ([1]; High humidity (RH75%), 10 days, methanesulfonate): 1.09%
- Total impurity % ([1]; High humidity (RH75%), 30 days, methanesulfonate): 1.12%
- Total impurity % [1, 3]: 0.86%
- Total impurity % ([1]; High temperature (60° C.), 5 days, methanesulfonate): 1.00%
- Total impurity % [1, 4]: 0.98%
- Total impurity % [1, 5]: 0.86%
- Total impurity % ([1]; Illumination (5000 + 500 lux), 5 days, methanesulfonate): 0.94%
- Total impurity % [1, 6]: 1.12%
- Total impurity % [1, 7]: 1.33%

Structure (SMILES): COc1cc2nccc(Oc3ccc4c(c3)CCCN4C(=O)Nc3cccc(F)c3)c2cc1OC [Crystalline form C, N-(3-fluorophenyl)-6-(6,7-dimethoxyquinolin-4-oxy)-3,4-dihydroquinoline-1(2H)-carboxamide methanesulfonate]
- solid state stability compared with other crystalline forms [2]: better than that of the crystalline form A and the crystalline form B
- Purity, area %, peak 1 RRT 0.42 ([2]; 25° C./60% RH open, 1 week*): 0.02 area %
- Purity, area %, peak 2 RRT 0.60-0.61 ([2]; 25° C./60% RH open, 1 week*): 0.04 area %
- Purity, area %, peak 3 RRT 0.81 ([2]; 25° C./60% RH open, 1 week*): 0.55 area %
- Purity, area %, peak 4 RRT 0.93 ([2]; 25° C./60% RH open, 1 week*): 0.05 area %
- Purity, area %, peak 5 RRT 1.00 (main peak) ([2]; 25° C./60% RH open, 1 week*): 99.15 area %
- Purity, area %, peak 6 RRT 1.10 ([2]; 25° C./60% RH open, 1 week*): 0.14 area %
- Purity, area %, peak 7 RRT 1.27 ([2]; 25° C./60% RH open, 1 week*): 0.06 area %
- Purity, area %, peak 1 RRT 0.42 ([2]; 25° C./60% RH open, 4 weeks): 0.02 area %
- Purity, area %, peak 2 RRT 0.60-0.61 ([2]; 25° C./60% RH open, 4 weeks): 0.05 area %
- Purity, area %, peak 3 RRT 0.81 ([2]; 25° C./60% RH open, 4 weeks): 0.54 area %
- Purity, area %, peak 4 RRT 0.93 ([2]; 25° C./60% RH open, 4 weeks): 0.05 area %
- Purity, area %, peak 5 RRT 1.00 (main peak) ([2]; 25° C./60% RH open, 4 weeks): 99.14 area %
- Purity, area %, peak 6 RRT 1.10 ([2]; 25° C./60% RH open, 4 weeks): 0.14 area %
- Purity, area %, peak 7 RRT 1.27 ([2]; 25° C./60% RH open, 4 weeks): 0.06 area %
- Purity, area %, peak 1 RRT 0.42 ([2]; 40° C./75% RH open, 1 week*): 0.03 area %
- Purity, area %, peak 2 RRT 0.60-0.61 ([2]; 40° C./75% RH open, 1 week*): 0.04 area %
- Purity, area %, peak 3 RRT 0.81 ([2]; 40° C./75% RH open, 1 week*): 0.69 area %
- Purity, area %, peak 4 RRT 0.93 ([2]; 40° C./75% RH open, 1 week*): 0.04 area %
- Purity, area %, peak 5 RRT 1.00 (main peak) ([2]; 40° C./75% RH open, 1 week*): 99.02 area %
- Purity, area %, peak 6 RRT 1.10 ([2]; 40° C./75% RH open, 1 week*): 0.13 area %
- Purity, area %, peak 7 RRT 1.27 ([2]; 40° C./75% RH open, 1 week*): 0.06 area %
- Purity, area %, peak 1 RRT 0.42 ([2]; 40° C./75% RH open, 4 weeks): 0.03 area %
- Purity, area %, peak 2 RRT 0.60-0.61 ([2]; 40° C./75% RH open, 4 weeks): 0.08 area %
- Purity, area %, peak 3 RRT 0.81 ([2]; 40° C./75% RH open, 4 weeks): 0.86 area %
- Purity, area %, peak 4 RRT 0.93 ([2]; 40° C./75% RH open, 4 weeks): 0.05 area %
- Purity, area %, peak 5 RRT 1.00 (main peak) ([2]; 40° C./75% RH open, 4 weeks): 98.80 area %
- Purity, area %, peak 6 RRT 1.10 ([2]; 40° C./75% RH open, 4 weeks): 0.13 area %
- Purity, area %, peak 7 RRT 1.27 ([2]; 40° C./75% RH open, 4 weeks): 0.05 area %
- Purity, area %, peak 1 RRT 0.42 [2, 8]: 0.03 area %
- Purity, area %, peak 2 RRT 0.60-0.61 [2, 8]: 0.05 area %
- Purity, area %, peak 3 RRT 0.81 [2, 8]: 0.55 area %
- Purity, area %, peak 4 RRT 0.93 [2, 8]: 0.05 area %
- Purity, area %, peak 5 RRT 1.00 (main peak) [2, 8]: 99.12 area %
- Purity, area %, peak 6 RRT 1.10 [2, 8]: 0.15 area %
- Purity, area %, peak 7 RRT 1.27 [2, 8]: 0.05 area %
- Purity, area %, peak 1 RRT 0.42 ([2]; Start (60° C. closed test)): 0.03 area %
- Purity, area %, peak 2 RRT 0.60-0.61 ([2]; Start (60° C. closed test)): 0.05 area %
- Purity, area %, peak 3 RRT 0.81 ([2]; Start (60° C. closed test)): 0.54 area %
- Purity, area %, peak 4 RRT 0.93 ([2]; Start (60° C. closed test)): 0.05 area %
- Purity, area %, peak 5 RRT 1.00 (main peak) ([2]; Start (60° C. closed test)): 99.13 area %
- Purity, area %, peak 6 RRT 1.10 ([2]; Start (60° C. closed test)): 0.15 area %
- Purity, area %, peak 7 RRT 1.27 ([2]; Start (60° C. closed test)): 0.06 area %
- Purity, area %, peak 1 RRT 0.42 [2, 9]: 0.02 area %
- Purity, area %, peak 2 RRT 0.60-0.61 [2, 9]: 0.03 area %
- Purity, area %, peak 3 RRT 0.81 [2, 9]: 0.48 area %
- Purity, area %, peak 4 RRT 0.93 [2, 9]: 0.05 area %
- Purity, area %, peak 5 RRT 1.00 (main peak) [2, 9]: 99.22 area %
- Purity, area %, peak 6 RRT 1.10 [2, 9]: 0.14 area %
- Purity, area %, peak 7 RRT 1.27 [2, 9]: 0.06 area %
- crystalline form after the stability test (XRPD) ([2]; after stability test): no change in crystalline form
- change in HPLC purity ([2]; listed as crystalline form C of methanesulfonate): no significant decrease
- change in HPLC purity [2]: No significant change
- decrease in purity [2, 10]: 0.42 area %
- increase in the impurity at RRT of 0.81 [2, 10]: 0.38%
- Total impurity % ([1]; High humidity (RH92.5%), 0 day): 0.66%
- Total impurity % ([1]; High humidity (RH92.5%), 10 days): 0.75%
- Total impurity % ([1]; High humidity (RH92.5%), 30 days): 0.73%
- Total impurity % [1, 3]: 0.66%
- Total impurity % [1, 4]: 0.81%
- Total impurity % ([1]; High temperature (60° C.), 30 days): 0.85%
- Total impurity % [1, 5]: 0.66%
- Total impurity % [1, 6]: 0.83%
- Total impurity % [1, 7]: 0.89%
- hygroscopicity compared with other crystalline forms (Hygroscopicity, DVS test): better than that of the crystalline form A and the crystalline form B
- hygroscopicity classification (Hygroscopicity, DVS test; DVS 0% RH-95% RH at 25° C., classification per Chinese Pharmacopoeia 2015): slight hygroscopicity
- hygroscopic weight gain (Hygroscopicity, DVS test; DVS, 25° C./80% RH): about 0.46%
- crystalline form after the DVS test (XRPD) (Hygroscopicity, DVS test; after DVS test, listed as crystalline form C of methanesulfonate, methanesulfonate): no change in crystalline form; also recorded: remained unchanged
